Consider 4 molecules from patent US20130030049A1, “METHODS OF TREATING DERMATOLOGICAL DISORDERS OR CONDITIONS” (Dermira (Canada), Inc., priority 2006, published 2013).

Read-outs that look alike come from different tables or passages of the source.

For data set [1], the system named is SZ95 sebocytes. Nature of the data set: Inhibition of lipid synthesis in AA-stimulated SZ95 sebocytes (Nile Red staining). It counts as cell-based, human. On the procedure: (§1) The immortalized human sebocyte cell line, SZ95, was maintained in culture as described in Zouboulis, C. C. et al., J. Invest. Dermatol. (1999), Vol. 113, pp. 1011-1020. Lipid synthesis was stimulated by treating SZ95 cells with arachidonic acid (AA). For measurement of lipid production and lipid inhibition studies, test compounds were dissolved in dimethylsulfoxide (DMSO) and added at the desired concentration in 96-well microtiter plates. The cells were then cultured for up to 72 hours before the plates were washed 3 times with PBS and a final volume of 200 μL PBS/well was added. To stain cell neutral lipids, 5 μL of Nile Red solution (0.2 mg/mL dissolved in DMSO) was added to each well and incubated for a minimum of 60 minutes. Plate fluorescence was then quantified using a fluorometric plate reader (excitation wavelength: 490 nm; emission wavelength: 590 nm). Inhibition of lipid levels by the test compound was expressed as the % reduction of the fluorescence of AA-stimulated cells in the presence of the test compound relative to the values obtained for the unstimulated control cells. Cell viability was measured by utilizing the conversion of a tetrazolium reagent (MTS) to a colored-formazan product by live cells. For these assays, the test compound was dissolved in dimethylsulfoxide (DMSO) and added at the desired concentration to cells seeded into 96-well plates. The cells were cultured for 48 hours in the presence of the test compound before the plates were washed 3 times with PBS. A final volume of 100 μL of culture medium per well was added. Twenty μL of MTS solution (0.2 mg/mL in sterile PBS) was added to each well and incubated for a minimum of 60 minutes until the desired optical density was reached. The color development of the wells was measured using a plate reader at an absorbance of […]. Effect on cell viability by the test compound was expressed as the % reduction of the absorbance for AA-stimulated cells in the presence of the test compound relative to the values obtained for the untreated control cells.

The conditions of data set [2]: oral, moderate to severe acne patients, at 12 weeks; cited from earlier work.
The subject of the next data set is IL-1β. Nature of the data set: Supernatant IL-1β level of activated PBMC (flow cytometry-based). It counts as cell-based. To be noted: Homo sapiens; PBMC stimulated with IFN-γ plus LPS, 10% FBS, 48 hours; read-out: IL-1β supernatant level IC50 (estimated). On the procedure: (§2) As described herein, the inhibitory effect of TOFA on fatty acid synthesis is well known. However, the potential influence of TOFA on cellular production of inflammatory mediators or immune cell proliferation is unreported. To address this question, PBMC were isolated from different donors by density gradient centrifugation. Different amounts of TOFA were added to PBMC cultures in the presence of two different stimuli sets. One activating stimulus was phytohemagglutinin (PHA), a plant-derived mitogen that stimulates proliferation and cytokine synthesis by T lymphocytes. These cell preparations were also activated using a combination of interferon-γ (IFN-γ) and lipopolysaccharide (LPS) to stimulate cytokine production by the monocyte fraction within PBMC preparations. Following a 48 hour culture period, cell supernatants were obtained for simultaneous determination of cytokine levels using a flow cytometry-based quantification method. […] Cell viability was assessed using a colorimetric assay based on the conversion of 3-(4,5-dimethylthiazol-2-yl)-5-(3-carboxymethoxyphenyl)-2-(4-sulfophenyl)-2H-tetrazolium, inner salt (MTS) into a soluble formazan product by mitochondrial dehydrogenase of viable cells. Cell proliferation was determined by adding ^3H-thymidine to the cultures and determining its level of incorporation into DNA using scintillation counting.

The next data set has as its system IL-8. As to the kind of experiment: Supernatant IL-8 level of activated PBMC (flow cytometry-based). It counts as cell-based. To be noted: Homo sapiens; PBMC stimulated with IFN-γ plus LPS, 10% FBS, 48 hours; read-out: IL-8 supernatant level IC50 (estimated). How it is done:
as §2

For a further data set, the system named is TNF-α. As to the kind of experiment: Supernatant TNF-α level of activated PBMC (flow cytometry-based). The conditions noted are these: Homo sapiens, 48 h, PBMC stimulated with IFN-γ plus LPS, 10% FBS, read-out: TNF-α supernatant level IC50 (estimated). It counts as cell-based. On the procedure:
as §2

The subject of another data set is IL-6. Nature of the data set: Supernatant IL-6 level of activated PBMC (flow cytometry-based). It counts as cell-based. The conditions noted are these: Homo sapiens; PBMC stimulated with IFN-γ plus LPS, 10% FBS, 48 hours; read-out: IL-6 supernatant level IC50 (estimated). On the procedure: as §2
The subject of another data set is PBMC. Nature of the data set: Viability of activated PBMC (MTS assay). It counts as cell-based, human. How it is done: as §2
Background: Tetrazolium assays rely on reduction of a dye to a coloured formazan, in cell work by metabolically active cells.

Data set [3] deals with SZ95 sebocytes. Nature of the data set: SZ95 sebocyte viability (MTS assay). It counts as cell-based, human. To be noted: AA-stimulated SZ95 cells, FIG. 2B. On the procedure:
as §1, with “To stain cell neutral lipids, 5 μL of Nile Red solution (0.2 mg/mL dissolved in DMSO) was added to each well and incubated for a minimum of 60 minutes.” left out, “For these assays, the test compound was dissolved in dimethylsulfoxide (DMSO) and added at the desired concentration to cells seeded into 96-well plates. The cells were cultured for 48 hours in the presence of the test compound before the plates were washed 3 times with PBS. A final volume of 100 μL of culture medium per well was added. Twenty μL of MTS solution (0.2 mg/mL in sterile PBS) was added to each well and incubated for a minimum of 60 minutes until the desired optical density was reached.” left out

The test system of a further data set is 3T3-L1 cells. As to the kind of experiment: 3T3-L1 adipocyte differentiation and lipid accumulation (Oil Red O). To be noted: mouse 3T3-L1 adipocytes, FIGS. 8-10. It counts as cell-based. How it is done: Mouse 3T3-L1 preadipocytes (American Type Culture Collection) were passaged and maintained in Dulbecco's modified Eagles Medium (DMEM) supplemented with 10% fetal calf serum (FCS), 1 mM sodium pyruvate, penicillin (100 U/ml)/streptomycin (100 μg/ml) and 4 mM Glutamax (Gibco/Life Technologies). To initiate adipocyte differentiation, 3T3-L1 cells were plated at confluency into culture plates or dishes and grown in supplemented DMEM for two days post-confluency. Initiation medium consisted of DMEM with 0.5 mM 3-isobutyl-1-methylxanthine, 1 μM dexamethasone and human insulin at 10 μg/ml. Progression medium contained insulin (10 μg/ml) which replaced the initiation medium after 48-72 hours. Cellular lipid was imaged by Oil Red O staining as described in Example 2 for LNCaP cells.

In a further data set the test system is LNCaP cells. Nature of the data set: Lipid accumulation in DHT-stimulated LNCaP cells (Nile Red flow cytometry, Oil Red O). It counts as cell-based, human. How it is done: The human prostate LNCaP adenocarcinoma cell line was obtained from American Type Culture Collection. Cells were maintained in RPMI 1640 medium containing 10% fetal calf serum (FCS), 4 mM Glutamax, 1 mM sodium pyruvate, 1 mM HEPES, penicillin (100 U/mL) and streptomycin (100 μg/mL). For experiments, approximately 10,000 cells/well were plated in 6-well tissue culture plates in RPMI 1640 10% FBS for 72 hours. To minimize potential serum androgen effects, medium containing 5% charcoal/dextran-stripped FCS was added for 72 hours. Lipid synthesis was then stimulated by addition of the androgen dihydrotestosterone (DHT) at 50 nM. TOFA was solubilized in DMSO and added at various concentrations in RPMI 1640 containing 5% charcoal/dextran-treated. Cells were incubated in the presence of these factors for 96 hours at 37° C. Lipid accumulation was subsequently quantified by Nile Red staining and flow cytometric analysis. The flow cytometer laser excitation was set at 488 nm and Nile Red fluorescence collected through a 585 nm band pass filter. A total of 10,000 events were collected per sample. […] Cell Nile Red fluorescence was also visualized through a fluorescence microscope.
Cellular lipid expression was also determined using Oil Red O staining. […] Lipid accumulation was visualized by fluorescence microscopy.

In general, IC50 refers to the concentration at which inhibition is half-maximal.

Turning to `CC1=C(/C=C/C(C)=C/C=C/C(C)=C\C(=O)O)C(C)(C)CCC1` [13-cis retinoic acid, 13-cis-retinoic acid, reference compound], the half-inhibitory concentration (IC50) in the data set on SZ95 sebocytes [1] (SZ95 cells, short term cultures, read-out: IC50 against lipid synthesis) is approximately 40 µM.
As for `CCCCC/C=C\C/C=C\C/C=C\C/C=C\CCCC(=O)O` [arachidonic acid (AA), arachidonic acid, reference compound], the “increase of SZ95 sebocyte lipid levels” value in the data set with SZ95 sebocytes [1] (96-well microtiter plate format) is “approximately 5 fold”.
For the molecule `CC(c1cc2ccccc2s1)N(O)C(N)=O` (stereo not shown) [Zileuton], in [2], the “reduction in inflammatory lesions” value is 71% and the “reduction of sebum lipids” value is recorded as 65%.
For the molecule `CCCCCCCCCCCCCCOc1ccc(C(=O)O)o1` [TOFA, 5-(tetradecyloxy)-2-furancarboxylic acid], the “inhibition of lipid synthesis observed by fluorescence microscopy” value in the data set with SZ95 sebocytes [1] (AA-stimulated SZ95 cells, FIG. 1) is on record as “dose-dependent inhibition of lipid synthesis”. Also, the IC50 in the data set on SZ95 sebocytes [1] (Homo sapiens, AA-stimulated SZ95 cells, FIG. 2A, read-out: estimated IC50 upon lipid synthesis (nile red fluorescence intensity)) is approximately 3 µM; in the data set on IL-1β, more than 90 µM; in the data set on IL-8, more than 90 µM; with TNF-α, more than 90 µM; in the data set with IL-6, more than 90 µM; in the data set on PBMC (Homo sapiens, PBMC stimulated with PHA (2 μg/mL), 10% FBS, 48 hours, one row per experiment (donor)), more than 90 µM. Also, the “effect on the viability of PBMC” value in the data set on PBMC (PBMC stimulated with PHA or IFN-γ plus LPS) is “no effect on the viability”. For the same molecule, the “TOFA concentration with viability loss” value in the data set on SZ95 sebocytes [3] is on record as “greater than 50 μM”. The “effect on cellular differentiation and lipid accumulation” value in the data set with 3T3-L1 cells is “dose-dependent effects on cellular differentiation and lipid accumulation”. Further, the “lipid levels by Oil Red O staining and fluorescence microscopy” value in the data set on LNCaP cells (FIG. 11) is on record as “dose dependent reduction in lipid levels”. In the data set with LNCaP cells (TOFA at 25 μM, FIG. 12), the “reduction of lipid levels (flow cytometry/fluorescence)” value was more than 50%.
